What was measured:
[1] = Solubility test for common agro actives; settings: 14% w/w analyte/solvent, 30° C., vortex and ultrasound
Protocol: Solubility test (for common agro actives) was carried out at the working concentration of 14% w/w analyte/solvent, initially in traditional solvents and then in our selected solvents, at 30° C. and assisted by vortex and ultrasound.

[2] = Wetted area of droplets on a paper sheet (pure systems); assay type: physicochemical; settings: 5 μL drop
Protocol: (§1) A general procedure was developed to evaluate the wetted area of droplets. The test system was prepared with 1% of the eutectic products in water, and a miscible dye, which allowed the visualization of the wetted area droplets. To compare the ability of the pure systems to a known adjuvant, TX (Triton X-100), a nonionic surfactant that has a hydrophilic polyethylene oxide chain with, on average, 9.5 ethylene oxide units) was used and was prepared under the same conditions and compared with a water/dye blank.

[3] = Wetted area on a paper sheet (mixture systems with TX); assay type: physicochemical
Protocol: as §1
With the results from the pure systems on paper and a waxy leaf shown in tables 1 and 2, a subsequent test was performed wherein mixtures of the products of the present invention with TX were compared on a paper sheet. Mixtures comprising TX and the products under study were evaluated at 0.9, 0.75, 0.50, 0.25, and 0.10% (1% total concentration). […] Compared to TX/water, the mixture with TX/BOA (50/50%) increased the wetted area by around 190%, systems with TX/BOA and TX/BOA (75/25%) increased the wetted area by around 180%, while TX/BOA (25/75%) increased the wetted area by around 150% (see Table 3).

[4] = test system: waxy leaves of Epipremnum aureum; assay: Wetted area of droplets on waxy leaves; assay type: physicochemical
Protocol: as §1
In a subsequent experiment, the wetted area of droplets was tested on waxy leaves of Epipremnum aureum. The quantitative results of those tests appear in Table 2.

[5] = Evaporation time measurements; assay type: physicochemical; settings: 5 μL drop of 1% solution in H2O, glass slide, room temperature
Protocol: Evaporation time was analyzed after applying 5 μL (one drop) of a 1% solution in water, on a glass slide at room temperature.

[6] = Component A TX 0.1% + Component B 0.9%
[7] = Component A TX 0.25% + Component B 0.75%
[8] = Component A TX 0.5% + Component B 0.5%
[9] = Component A TX 0.75% + Component B 0.25%
[10] = Component A TX 0.9% + Component B 0.1%

Relative size (%) with reference to H2O ([2]; 1% in water) [%]	Relative size (%) with reference to TX ([2]; 1% in water) [%]	Area ([2]; 1% in water with dye) [mm^2]	Area [3, 6] [mm^2]	Relative size (%) with reference to TX/H2O [3, 6] [%]	Area [3, 7] [mm^2]	Relative size (%) with reference to TX/H2O [3, 7] [%]	Area [3, 8] [mm^2]	Relative size (%) with reference to TX/H2O [3, 8] [%]	Area [3, 9] [mm^2]	Relative size (%) with reference to TX/H2O [3, 9] [%]	Area [3, 10] [mm^2]	Relative size (%) with reference to TX/H2O [3, 10] [%]	Relative size (%) with reference to H2O [4] [%]	Relative size (%) with reference to TX [4] [%]	Evaporation time [5] [min]	The relative evaporation time with reference to TX (min) [5]	Molecule	Solubility in the selected solvents [1]
																	CCNc1nc(Cl)nc(NC(C)(C)C)n1 [Terbutylazine]	Soluble in 9 of our tested solvents
424.82	100.00	23.98	18.05	100.00	18.99	100.00	17.78	100.00	17.84	100.00	15.81	100.00	333.18	100.00	19.73	1.00	Triton X-100 [TX]	
